Where a name gives a salt, the structure may show the parent alone. The source made the active and inactive calls.
How the values were obtained:
[1] = Luminescence Cell-Based Dose Response HTS to Identify Inhibitors of 5'UTR Stem-Loop Driven Prion Protein mRNA Translation in H4 Neuroglioblastoma Cells. [Related pubchem assays: 1827 (Project Summary), 1813 (Primary HTS)]; assay type: functional
[2] = inhibitors of SNCA 5'UTR-driven reporter translation, confirmation, H4 neuroglioma cells, luminescence (AID 1988); assay type: functional, cell-based
[3] = molecular target: T1, DNA repair protein RAD52 homolog (Homo sapiens, UniProt P43351); assay type: functional, biochemical
T1 sequence (P43351 whole entry): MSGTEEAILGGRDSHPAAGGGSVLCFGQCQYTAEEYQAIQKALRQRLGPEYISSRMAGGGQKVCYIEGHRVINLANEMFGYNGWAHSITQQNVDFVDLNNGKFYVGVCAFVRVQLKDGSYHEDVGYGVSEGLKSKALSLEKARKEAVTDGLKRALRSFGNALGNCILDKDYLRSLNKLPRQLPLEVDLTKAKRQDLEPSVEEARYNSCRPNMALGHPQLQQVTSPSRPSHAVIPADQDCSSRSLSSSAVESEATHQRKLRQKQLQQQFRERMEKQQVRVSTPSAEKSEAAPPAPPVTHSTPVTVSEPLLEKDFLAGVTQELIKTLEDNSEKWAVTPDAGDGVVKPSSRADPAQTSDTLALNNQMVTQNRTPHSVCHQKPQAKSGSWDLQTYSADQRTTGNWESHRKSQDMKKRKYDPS

[4] = inhibitors of firefly luciferase expression or activity, dose response, H4 neuroglioma cells, luminescence (AID 1990); assay type: functional, cell-based
cells [5] = assay type: functional, cell-based
cells [6] = assay type: functional, cell-based; remark: listed apart in the source
[7] = molecular target: T2, Trace amine-associated receptor 1 (Homo sapiens, UniProt Q96RJ0); assay: Fluorescence-based cell-based high throughput dose response assay to identify agonists of the human trace amine associated receptor 1 (TAAR1).; assay type: functional
T2 sequence (Q96RJ0 whole entry): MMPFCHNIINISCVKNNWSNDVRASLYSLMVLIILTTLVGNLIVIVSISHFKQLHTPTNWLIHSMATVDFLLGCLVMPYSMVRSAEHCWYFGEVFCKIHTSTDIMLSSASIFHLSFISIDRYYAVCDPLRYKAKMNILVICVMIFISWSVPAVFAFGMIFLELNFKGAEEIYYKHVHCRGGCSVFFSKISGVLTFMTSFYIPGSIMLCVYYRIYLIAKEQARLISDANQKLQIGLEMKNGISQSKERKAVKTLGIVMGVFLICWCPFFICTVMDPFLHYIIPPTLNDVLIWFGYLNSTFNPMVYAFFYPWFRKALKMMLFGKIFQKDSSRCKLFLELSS

[8] = molecular target: T2, Trace amine-associated receptor 1; assay: Counterscreen for agonists of the human trace amine associated receptor 1 (hTAAR1): Fluorescence-based cell-based high throughput dose response assay to identify hTAAR1 agonist that also desensitize TAAR1 receptor response.; assay type: functional
[9] = molecular target: T3, Adenosylmethionine-8-amino-7-oxononanoate aminotransferase (Mycobacterium tuberculosis, UniProt P9WQ81); assay: Mycobacterium tuberculosis BioA enzyme inhibitor Measured in Biochemical System Using Plate Reader - 2163-02_Inhibitor_Dose_CherryPick_Activity.; assay type: functional, Mycobacterium tuberculosis UT205
T3 sequence (P9WQ81 whole entry): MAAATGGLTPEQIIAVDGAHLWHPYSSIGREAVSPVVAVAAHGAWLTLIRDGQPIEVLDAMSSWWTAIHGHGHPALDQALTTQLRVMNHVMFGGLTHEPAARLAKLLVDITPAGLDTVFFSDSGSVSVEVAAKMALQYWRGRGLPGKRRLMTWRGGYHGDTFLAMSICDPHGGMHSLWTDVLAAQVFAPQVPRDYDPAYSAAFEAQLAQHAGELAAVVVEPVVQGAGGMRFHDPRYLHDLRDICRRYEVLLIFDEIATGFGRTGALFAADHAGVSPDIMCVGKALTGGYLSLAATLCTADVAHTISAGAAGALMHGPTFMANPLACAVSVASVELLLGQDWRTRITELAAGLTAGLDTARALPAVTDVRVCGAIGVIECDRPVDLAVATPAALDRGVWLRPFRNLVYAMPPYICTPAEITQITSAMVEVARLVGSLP

[10] = molecular target: T4, Small ubiquitin-related modifier 1 (Homo sapiens, UniProt P63165); assay: inhibitors of SUMO1 partner interactions, dose response, biochemical, FRET (AID 624383); assay type: functional; conditions: read-out: IC50_Mean
T4 sequence (P63165 whole entry): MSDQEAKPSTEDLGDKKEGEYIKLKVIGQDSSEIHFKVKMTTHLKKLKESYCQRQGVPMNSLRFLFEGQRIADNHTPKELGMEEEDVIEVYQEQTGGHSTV

[11] = molecular target: 26S proteasome non-ATPase regulatory subunit 14 (Homo sapiens, UniProt O00487); assay: inhibition of proteasome subunit RPN11 – biochemical, fluorescence polarization, uHTS hits, confirmation (AID 602368); assay type: functional
Sequence of 26S proteasome non-ATPase regulatory subunit 14 (O00487 whole entry): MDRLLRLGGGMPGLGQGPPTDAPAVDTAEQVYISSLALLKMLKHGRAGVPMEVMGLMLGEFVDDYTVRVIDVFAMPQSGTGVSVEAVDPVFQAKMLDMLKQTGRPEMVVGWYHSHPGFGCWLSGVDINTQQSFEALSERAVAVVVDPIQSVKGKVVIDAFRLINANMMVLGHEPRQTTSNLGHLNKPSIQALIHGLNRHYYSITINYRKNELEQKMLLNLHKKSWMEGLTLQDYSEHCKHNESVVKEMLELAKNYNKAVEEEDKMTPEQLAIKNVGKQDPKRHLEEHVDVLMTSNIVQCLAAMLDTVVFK

[12] = molecular target: 72 kDa type IV collagenase (Homo sapiens, UniProt P08253); assay: Dose Response validation of uHTS RPN11 inhibitor hits using a MMP-2 Fluorescence assay.; assay type: functional
Sequence of 72 kDa type IV collagenase (P08253 whole entry): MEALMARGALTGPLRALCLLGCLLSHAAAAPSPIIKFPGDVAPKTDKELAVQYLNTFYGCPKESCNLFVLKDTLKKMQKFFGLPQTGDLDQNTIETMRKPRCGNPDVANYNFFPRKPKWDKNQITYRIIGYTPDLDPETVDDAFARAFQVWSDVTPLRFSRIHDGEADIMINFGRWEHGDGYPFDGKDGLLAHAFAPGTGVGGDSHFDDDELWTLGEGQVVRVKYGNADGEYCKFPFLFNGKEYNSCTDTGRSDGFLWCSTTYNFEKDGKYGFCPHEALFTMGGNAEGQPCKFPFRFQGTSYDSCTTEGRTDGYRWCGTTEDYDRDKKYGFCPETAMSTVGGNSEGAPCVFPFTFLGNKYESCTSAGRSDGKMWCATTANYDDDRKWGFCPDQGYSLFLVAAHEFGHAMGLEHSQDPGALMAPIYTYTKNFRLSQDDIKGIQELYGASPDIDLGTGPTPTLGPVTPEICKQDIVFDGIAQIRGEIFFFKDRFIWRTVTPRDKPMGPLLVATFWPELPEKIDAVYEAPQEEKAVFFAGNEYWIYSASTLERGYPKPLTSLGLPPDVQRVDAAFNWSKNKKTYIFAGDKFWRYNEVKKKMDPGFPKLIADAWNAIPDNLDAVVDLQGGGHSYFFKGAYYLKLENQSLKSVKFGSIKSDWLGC

Prothrombin = Prothrombin (Bos taurus, UniProt P00735); assay: thrombin inhibition, dose response, biochemical, fluorescence polarization, uHTS hits (AID 602369); assay type: functional
[13] = molecular target: T4, Small ubiquitin-related modifier 1; assay: inhibitors of SUMO1 peptide binding, dose response, biochemical, fluorescence polarization, uHTS hits (AID 624382); assay type: functional; conditions: read-out: IC50_Mean
Streptococcus = assay: Group A Streptococcus viability loss, dose response, counter-screen for streptokinase expression inhibitor project, luminescence, BacTiterGlo (AID 1915); assay type: functional, organism-based;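 also: potency for reduction of bacterial viability or growth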
[14] = molecular target: T5, Corticotropin-releasing factor receptor 2/Corticotropin-releasing factor-binding protein (Homo sapiens, UniProt P24387+Q13324); assay: Dose Response confirmation of uHTS hits for small molecule antagonists of the CRF-binding protein and CRF-R2 receptor complex.; assay type: functional; conditions: read-out: IC50_Mean
T5 sequence (Q13324 whole entry): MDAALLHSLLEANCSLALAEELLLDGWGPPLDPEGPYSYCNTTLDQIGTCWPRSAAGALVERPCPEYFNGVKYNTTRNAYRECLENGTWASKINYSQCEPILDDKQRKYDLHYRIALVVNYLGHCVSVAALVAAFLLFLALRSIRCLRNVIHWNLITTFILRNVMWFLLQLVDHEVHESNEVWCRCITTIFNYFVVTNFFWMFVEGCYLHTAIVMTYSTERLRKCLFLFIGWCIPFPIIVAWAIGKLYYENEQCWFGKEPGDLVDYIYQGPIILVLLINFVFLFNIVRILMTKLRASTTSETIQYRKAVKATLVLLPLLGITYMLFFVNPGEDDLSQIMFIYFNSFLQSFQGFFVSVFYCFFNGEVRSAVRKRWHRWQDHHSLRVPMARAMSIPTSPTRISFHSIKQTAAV
T5 sequence (P24387 whole entry): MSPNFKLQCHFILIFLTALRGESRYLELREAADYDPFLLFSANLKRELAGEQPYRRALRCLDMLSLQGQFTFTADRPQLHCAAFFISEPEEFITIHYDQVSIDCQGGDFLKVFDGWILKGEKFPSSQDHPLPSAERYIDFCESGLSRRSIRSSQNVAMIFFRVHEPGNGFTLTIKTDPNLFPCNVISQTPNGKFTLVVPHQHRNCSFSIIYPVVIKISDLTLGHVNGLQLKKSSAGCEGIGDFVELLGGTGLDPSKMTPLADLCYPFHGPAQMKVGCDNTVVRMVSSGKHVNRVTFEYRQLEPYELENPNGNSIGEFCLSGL

[15] = CRF-BP/CRF-R2 complex antagonists, dose response, cell-based, uHTS hits, 384-well (AID 651639); assay type: functional, Homo sapiens; conditions: read-out: IC50_Mean
Streptokinase A = molecular target: T6, Streptokinase A (Streptococcus pyogenes serotype M1, UniProt P10520); assay: S. pyogenes streptokinase expression inhibitors, potency, dose response, plasminogen activation absorbance, OD405 (AID 1914); assay type: functional, Streptococcus pyogenes M1 GAS;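 also: secreted streptokinase activity via plasminogen activation per viability signal from cell pellet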
T6 sequence (P10520 whole entry): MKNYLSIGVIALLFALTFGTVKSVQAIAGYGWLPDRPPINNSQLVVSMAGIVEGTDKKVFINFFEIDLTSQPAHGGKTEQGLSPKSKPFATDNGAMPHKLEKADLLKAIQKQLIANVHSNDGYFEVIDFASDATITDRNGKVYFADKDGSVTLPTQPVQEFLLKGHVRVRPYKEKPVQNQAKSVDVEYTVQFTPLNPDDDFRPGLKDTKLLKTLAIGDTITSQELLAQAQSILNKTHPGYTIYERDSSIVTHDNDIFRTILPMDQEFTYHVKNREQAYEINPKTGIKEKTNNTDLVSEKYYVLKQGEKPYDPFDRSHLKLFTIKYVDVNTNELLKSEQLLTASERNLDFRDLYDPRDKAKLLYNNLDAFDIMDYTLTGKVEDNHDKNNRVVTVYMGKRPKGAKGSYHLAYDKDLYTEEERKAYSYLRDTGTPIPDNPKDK

[16] = tested on: Streptococcus sp. 'group A'; assay: growth inhibition of control SK(-) GAS strain, dose response, counter-screen for streptokinase expression inhibitor project, luminescence, kanamycin, BacTiterGlo, confirmation (AID 1900); assay type: functional, organism-based
[17] = molecular target: T5, Corticotropin-releasing factor receptor 2/Corticotropin-releasing factor-binding protein; assay: activators of CRF receptor 2 with binding protein – uHTS hits, confirmation (AID 602473); assay type: functional; conditions: read-out: EC50_Mean
[18] = molecular target: T7, Fructose-bisphosphate aldolase (Mycobacterium tuberculosis, UniProt P9WQA3); assay: Fluorescence-based biochemical high throughput dose response assay for inhibitors of the fructose-bisphosphate aldolase (FBA) of M. tuberculosis.; assay type: functional
T7 sequence (P9WQA3 whole entry): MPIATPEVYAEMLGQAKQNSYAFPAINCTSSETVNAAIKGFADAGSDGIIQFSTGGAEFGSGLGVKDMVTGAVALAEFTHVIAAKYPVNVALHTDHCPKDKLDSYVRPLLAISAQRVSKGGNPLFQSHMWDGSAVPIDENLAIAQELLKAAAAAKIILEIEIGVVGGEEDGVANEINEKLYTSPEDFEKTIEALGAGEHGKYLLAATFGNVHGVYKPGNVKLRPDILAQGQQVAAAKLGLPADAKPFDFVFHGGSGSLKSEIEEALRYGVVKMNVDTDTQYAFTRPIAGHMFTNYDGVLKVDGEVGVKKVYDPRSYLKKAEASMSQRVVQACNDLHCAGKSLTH

H9c2 = assay: cells; assay type: functional, cell-based; conditions: Rattus norvegicus, H9c2, Myocardium;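 also: confirmatory concentration-response retest of ultra-high-throughput screening hits for modulation of myocardial damage; cell death induced by hydrogen peroxide oxidative stress; compound pretreatment for 60 min then peroxide exposure for 2 h; potency is for protecting the cells against peroxide damage rather than for killing them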

CN1CCN(C2Cc3cc(Cl)ccc3Sc3cc(F)ccc32)CC1 (stereo not given)
EC50 [1]: > 120 µM (not active)
EC50 [2]: 8.62 µM (active)
AC50 [3]: 18.1 µM (active)
EC50 [4]: > 120 µM (not active)

CCc1ccc(N2CN(CCc3ccccc3)CN=C2S)cc1
EC50 (cells [5]): > 29.9 µM (inactive)
IC50 (cells [6]): > 29.9 µM (inactive)
EC50 [7]: 2.26 µM (active)
IC50 [8]: 9.18 µM (active)

O=C(c1ccc(S(=O)(=O)Nc2ccccc2F)cc1)N1CCN(c2ccccc2O)CC1
AC50 [9]: 3.62 µM (active)

CCC(CO)Oc1cc(NC(=O)c2ccc(N)cc2)c2ncn(C(C)C)c2c1 (stereo not given)
IC50 [10]: 9.23 µM (active)
IC50 [11]: 19.6 µM (active)
IC50 [12]: 64.6 µM (active)
IC50 (Prothrombin): > 100 µM (inactive)
IC50 [13]: > 66.6 µM (inactive)

Cc1ccccc1-c1cc2nc(-c3ccc([N+](=O)[O-])cc3)cc(O)n2n1
EC50 (Streptococcus): 60.1 µM (active)
IC50 [14]: 4.74 µM (active)
IC50 [15]: 3.21 µM (active)
EC50 (Streptokinase A): > 150 µM (not active)
EC50 [16]: 9.23 µM (active)
EC50 [17]: > 53 µM (inactive)

CC1(C)Oc2cc3oc(C(=O)O)cc(=O)c3cc2-c2ccccc21
IC50 [18]: > 0.37 µM (active)

CNC(=O)C[C@H]1CC[C@@H]2[C@H](COC[C@@H](O)CN2C(=O)Nc2ccc3c(c2)OCO3)O1
AC50 [9]: 10.4 µM (active)

CC(=O)c1ccc(NC(=O)CN2CCN(c3ccccc3)CC2)cc1
AC50 [9]: 8.6 µM (active)

c1ccc2c(c1)CCCC2C1=NCCN1 (stereo not given) [TETRAHYDROZOLINE HYDROCHLORIDE]
EC50 (cells [5]): > 29.9 µM (inactive)
IC50 (cells [6]): > 29.9 µM (inactive)
EC50 [7]: 0.154 µM (active)
IC50 [8]: 0.157 µM (active)

CC1=CC(C)(C)N2C(=O)C3(C(C#N)=C(N)Oc4cc(O)ccc43)c3c(C)c(C)cc1c32 (stereo not given)
IC50 [14]: 29.4 µM (active)
IC50 [15]: 16.5 µM (active)
EC50 [17]: > 53 µM (inactive)

Cc1nn(S(=O)(=O)c2cccs2)c(C)c1Sc1ccc([N+](=O)[O-])cc1
IC50 [14]: < 0.368 µM (active)
IC50 [15]: 12.8 µM (active)
EC50 [17]: > 53 µM (inactive)

CCn1c(C)c(C(C)=O)c(NCc2ccccc2)nc1=S
AC50 [3]: 11 µM (active)

COc1ccc(C2c3c(oc4ccc(Cl)cc4c3=O)C(=O)N2CCN2CCOCC2)cc1 (stereo not given)
AC50 [9]: 3.7 µM (active)

O=C(Cc1nnc(O)nc1O)N/N=C/c1ccccc1
EC50 (cells [5]): > 29.9 µM (inactive)
IC50 (cells [6]): > 29.9 µM (inactive)
EC50 [7]: > 29.9 µM (inactive)
IC50 [8]: > 29.9 µM (inactive)

CC1(C)CC(=O)C2=C(C1)N(CCN1CCOCC1)C1=C(C(=O)CC(C)(C)C1)C2c1ccc(Cl)cc1
IC50 [18]: 2.33 µM (active)
IC50 (H9c2): > 79 µM (inactive)

O=S(=O)(NCCc1ccccc1)c1ccc(F)cc1
EC50 (cells [5]): > 29.9 µM (inactive)
IC50 (cells [6]): > 29.9 µM (inactive)
EC50 [7]: 1.37 µM (active)
IC50 [8]: 4.22 µM (active)
